Experimental data taken from patent publication US9944598B2, “Mono- or di-substituted indole derivatives as dengue viral replication inhibitors” (priority 2014, dated 2018).

Legend:
Assay type in all cases: cell-based
[1] = system: DENV-4 strain H241; test: Tetravalent RT-qPCR assay Protocol A, serotype 4 H241; conditions: Dengue virus, DENV4, 72 h, RT-qPCR serotype 4 H241, Vero cells, 3 days
Experimental: (§1) The antiviral activity of the compounds of the invention was tested against DENV-1 strain TC974#666 (NCPV), DENV-2 strain 16681, DENV-3 strain H87 (NCPV) and DENV-4 strains H241 (NCPV) and EDEN (SG/06K2270DK1/2005; GenBank accession number QG398256) in a RT-qPCR assay. Therefore, Vero cells were infected with either DENV-1, or -2, or -3, or -4 in the presence or absence of test compounds. At day 3 post-infection, the cells were lysed and cell lysates were used to prepare cDNA of both a viral target (the 3′UTR of DENV; table 2) and a cellular reference gene (β-actin, table 2). Subsequently, a duplex real time PCR was performed on a Lightcycler480 instrument. The generated Cp value is inversely proportional to the amount of RNA expression of these targets. Inhibition of DENV replication by a test compound result in a shift of Cp's for the 3′UTR gene. On the other hand, if a test compound is toxic to the cells, a similar effect on β-actin expression will be observed. The comparative ΔΔCp method is used to calculate EC50, which is based on the relative gene expression of the target gene (3′UTR) normalized with the cellular housekeeping gene (β-actin). In addition, CC50 values were determined based on the Cp values acquired for the housekeeping gene β-actin.
(§2) The culture medium consisted of minimal essential medium supplemented with 2% of heat-inactivated fetal calf serum, 0.04% gentamycin (50 mg/mL) and 2 mM of L-glutamine. Vero cells, obtained from ECACC, were suspended in culture medium and 75 μL/well was added in 96-well plates (10000 cells/well), which already contain the antiviral compounds. Typically, these plates contain a 4-fold serial dilution of 9 dilution steps of the test compound at 200 times the final concentration in 100% DMSO (500 nL; final concentration range: 25 μM-0.00038 μM). In addition, each plate contains wells which are assigned as virus controls (containing cells and virus in the absence of compound) and cell controls (containing cells in the absence of virus and compound). Once the cells were added in the plates, the plates were incubated in a fully humidified incubator (37° C., 5% CO2) until the next day. Then, DENV-1 strain TC974#666, DENV-2 strain 16681, DENV-3 strain H87 or DENV-4 strains H241 or EDEN were added. […] In parallel, 25 μL of culture medium was added to the cell controls. Next, the plates were incubated for 3 days in a fully humidified incubator (37° C., 5% CO2). After 3 days, the supernatant was removed from the wells and the cells were washed twice with ice-cold PBS (˜100 μL). The cell pellets within the 96-well plates were stored at −80° C. for at least 1 day. Next, RNA was extracted using the Cells-to-CT™ lysis kit, according to the manufacture's guideline (Applied Biosystems). The cell lysates can be stored at −80° C. or immediately used in the reverse transcription step.
(§3) In preparation of the reverse transcription step, mix A (table 3A) was prepared and 7.57 μL/well was dispensed in a 96-well plate. After addition of 5 μL of the cell lysates, a five minute denaturation step at 75° C. was performed (table 3B). Afterwards, 7.43 μL of mix B was added (table 3C) and the reverse transcription step was initiated (table 3D) to generate cDNA.
(§4) Finally, a RT-qPCR mix was prepared, mix C (table 4A), dispensed in 96-well LightCycler qPCR plates to which 3 μL of cDNA was added and the qPCR was performed according to the conditions in table 4B on a LightCycler 480.
(§5) Using the LightCycler software and an in-house LIMS system, dose response curves for each compound were calculated and the half maximal effective concentration (EC50) and the half maximal cytotoxic concentration (CC50) were determined (Tables 6-9).

[2] = system: DENV-3 strain H87; test: Tetravalent RT-qPCR assay Protocol A, serotype 3; conditions: Dengue virus, DENV3, 72 h, RT-qPCR serotype 3 H87, Vero cells, 3 days
Experimental: as §1, §2, §3, §4, §5

[3] = system: DENV-2 NGC-Tongalike; test: Tetravalent RT-qPCR assay Protocol B, serotype 2; conditions: Dengue virus, DENV2, Vero, 96 h
Experimental: Vero cells (4×10^4) were seeded in 96-well plates. After one day, cell culture medium was replaced with 100 μL assay medium containing a 2×, 3× or 5× serial dilution of the compound (concentration range: 50 μg/mL-0.00038 μg/mL, 50 μg/mL-0.0076 μg/mL, and 50 μg/mL-0.00013 μg/mL, respectively) and 100 μL of dengue virus dilution, where a Ct of ˜20 is achieved in RTqPCR. Following a 2 hour incubation period, the cell monolayer was washed 3 times with assay medium to remove residual, non-adsorbed virus and cultures were further incubated for either 4 days (DENV-2 NGC-Tongalike) or 7 days (DENV-1 Djibouti strain D1/H/IMTSSA/98/606, DENV-3 strain H87 prototype, DENV-4 strain H241) in the presence of the inhibitor. Supernatant was harvested and viral RNA load was determined by real-time quantitative RT-PCR. The 50% effective concentration (EC50), which is defined as the compound concentration that is required to inhibit viral RNA replication by 50%, was determined using logarithmic interpolation (Tables 7 and 8).
RNA was isolated from 100 μL supernatant with the NucleoSpin 96 Virus kit (Filter Service, Düren, Germany) as described by the manufacturer. The sequences of the TaqMan primers (DENV-For, DENV-Rev; Table 5) and TaqMan probes (DENV-Probe Table 5) were selected from non-structural gene 3 (NS3) or NSS, of the respective flaviviruses using Primer Express software (version 2.0; Applied Biosystems, Lennik, Belgium). The TaqMan probe was fluorescently labelled with 6-carboxyfluorescein (FAM) at the 5′ end as the reporter dye, and with minor groove binder (MGB) at the 3′ end as the quencher (Table 5). One-step, quantitative RT-PCR was performed in a total volume of 25 μL, containing 13.9375 μL H2O, 6.25 μL master mix (Eurogentec, Seraing, Belgium), 0.375 μL forward primer, 0.375 μL reverse primer, 1 μL probe, 0.0625 μL reverse transcriptase (Eurogentec) and 3 μL sample. RT-PCR was performed using the ABI 7500 Fast Real-Time PCR System (Applied Biosystems, Branchburg, N.J., USA) using the following conditions: 30 min at 48° C. and 10 min at 95° C., followed by 40 cycles of 15 s at 95° C. and 1 min at 60° C. The data was analyzed using the ABI PRISM 7500 SDS software (version 1.3.1; Applied Biosystems). For absolute quantification, standard curves were generated using 10-fold dilutions of template preparations of known concentrations.

[4] = system: DENV-1 strain TC974#666; test: Tetravalent RT-qPCR assay Protocol A, serotype 1; conditions: Dengue virus, DENV1, 72 h, RT-qPCR serotype 1 TC974#666, Vero cells, 3 days
Experimental: as §1, §2, §3, §4, §5

[5] = in vitro; conditions: African green monkey
Experimental: as §1, §2, §5

| Compound | EC50 [1] | EC50 [2] | EC50 [3] | EC50 [4] | CC50 at 3 days [5] |
| --- | --- | --- | --- | --- | --- |
| COc1cc(NC(C(=O)c2c[nH]c3cc(F)ccc23)c2ccc(Cl)cc2OC)cc(OCCO)c1 (single isomer, unassigned) [Compound 1A, 2-(4-chloro-2-methoxyphenyl)-1-(6-fluoro-1H-indol-3-yl)-2-((3-(2-hydroxyethoxy)-5-methoxyphenyl)amino)ethanone] | 0.24 µM | 0.063 µM | 0.00038 µM | 0.0077 µM | – |
| COc1cc(NC(C(=O)c2c[nH]c3c(C)c(F)ccc23)c2ccc(Cl)cc2OC)cc(OCCO)c1 (single isomer, unassigned) [Compound 2A, 2-(4-chloro-2-methoxyphenyl)-1-(6-fluoro-7-methyl-1H-indol-3-yl)-2-((3-(2-hydroxyethoxy)-5-methoxyphenyl)amino)ethanone] | 0.26 µM | 0.053 µM | 0.0004 µM | 0.0071 µM | – |
| COc1cc(NC(C(=O)c2c[nH]c3c(C)c(Cl)ccc23)c2ccc(Cl)cc2OC)cc(OCCO)c1 (single isomer, unassigned) [Compound 3A, 2-(4-chloro-2-methoxyphenyl)-1-(6-chloro-7-methyl-1H-indol-3-yl)-2-((3-(2-hydroxyethoxy)-5-methoxyphenyl)amino)ethanone] | 0.18 µM | 0.036 µM | < 0.00033 µM | 0.0053 µM | 3.8 µM |
| COc1cc(NC(C(=O)c2c[nH]c3cc(Cl)ccc23)c2ccc(Cl)cc2OC)cc(OCCO)c1 (single isomer, unassigned) [Compound 4A, 1-(6-chloro-1H-indol-3-yl)-2-(4-chloro-2-methoxyphenyl)-2-((3-(2-hydroxyethoxy)-5-methoxyphenyl)amino)ethanone] | 0.24 µM | 0.065 µM | < 0.00034 µM | 0.0078 µM | – |
| COc1cc(NC(C(=O)c2c[nH]c3cc(OC)ccc23)c2ccc(Cl)cc2OC)cc(OCCO)c1 (single isomer, unassigned) [Compound 5A, 2-(4-chloro-2-methoxyphenyl)-2-((3-(2-hydroxyethoxy)-5-methoxyphenyl)amino)-1-(6-methoxy-1H-indol-3-yl)ethanone] | 0.32 µM | 0.068 µM | < 0.0004 µM | 0.013 µM | 5.2 µM |
| COc1cc(NC(C(=O)c2c[nH]c3cc(OC)c(C)cc23)c2ccc(Cl)cc2OC)cc(OCCO)c1 (single isomer, unassigned) [Compound 6A, 2-(4-chloro-2-methoxyphenyl)-2-((3-(2-hydroxyethoxy)-5-methoxyphenyl)amino)-1-(6-methoxy-5-methyl-1H-indol-3-yl)ethanone] | 0.084 µM | 0.026 µM | 0.0004 µM | 0.0036 µM | – |
| COc1cc(NC(C(=O)c2c[nH]c3cc(OC)c(F)cc23)c2ccc(Cl)cc2OC)cc(OCCO)c1 (single isomer, unassigned) [Compound 7A, 2-(4-chloro-2-methoxyphenyl)-1-(5-fluoro-6-methoxy-1H-indol-3-yl)-2-((3-(2-hydroxyethoxy)-5-methoxyphenyl)amino)ethanone] | 0.23 µM | 0.07 µM | 0.00027 µM | 0.016 µM | 4.6 µM |
| COc1cc(NC(C(=O)c2c[nH]c3c(C)cc(F)cc23)c2ccc(Cl)cc2OC)cc(OCCO)c1 (single isomer, unassigned) [Compound 8A, 2-(4-chloro-2-methoxyphenyl)-1-(5-fluoro-7-methyl-1H-indol-3-yl)-2-((3-(2-hydroxyethoxy)-5-methoxyphenyl)amino)ethanone] | 0.3 µM | 0.076 µM | 0.0014 µM | 0.0096 µM | 3.5 µM |
| COc1cc(NC(C(=O)c2c[nH]c3cc(F)c(F)cc23)c2ccc(Cl)cc2OC)cc(OCCO)c1 (single isomer, unassigned) [Compound 9A, 2-(4-chloro-2-methoxyphenyl)-1-(5,6-difluoro-1H-indol-3-yl)-2-((3-(2-hydroxyethoxy)-5-methoxyphenyl)amino)ethanone] | 0.24 µM | 0.063 µM | < 0.00031 µM | 0.005 µM | 4.7 µM |
| COc1cc(NC(C(=O)c2c[nH]c3c(F)cc(C)cc23)c2ccc(Cl)cc2OC)cc(OCCO)c1 (single isomer, unassigned) [Compound 10A, 2-(4-chloro-2-methoxyphenyl)-1-(7-fluoro-5-methyl-1H-indol-3-yl)-2-((3-(2-hydroxyethoxy)-5-methoxyphenyl)amino)ethanone] | 0.32 µM | 0.07 µM | 0.0014 µM | 0.014 µM | 4.1 µM |
| COc1cc(NC(C(=O)c2c[nH]c3c(F)c(F)ccc23)c2ccc(Cl)cc2OC)cc(OCCO)c1 (single isomer, unassigned) [Compound 11B, 2-(4-chloro-2-methoxyphenyl)-1-(6,7-difluoro-1H-indol-3-yl)-2-((3-(2-hydroxyethoxy)-5-methoxyphenyl)amino)ethanone] | 0.35 µM | 0.07 µM | 0.00027 µM | 0.018 µM | 3.7 µM |
